Measured values reported in patent US20040048369A1, “Control of inward-rectifier K+ ion channels” (priority 2002, published 2004).
Read-outs that look alike come from different tables or passages of the source. Each block holds one compound with its values, some of them ahead of it.

What was measured:
IRK1 channels [1] = target: T1, IRK1 channels (Mus musculus, UniProt P35561); test: Block of IRK1 currents by intracellular chemicals, inside-out patches of Xenopus oocytes injected with IRK1 cRNA; assay type: cell-based; settings: for inward rectification with intracellular metal ion chelator: each at 5 mM, pH 7.6, phosphate buffer
T1 construct: expressed in transfected cells; host or cells: Xenopus laevis oocytes injected with IRK1 cRNA; inside-out patches
T1 sequence (P35561 1-428): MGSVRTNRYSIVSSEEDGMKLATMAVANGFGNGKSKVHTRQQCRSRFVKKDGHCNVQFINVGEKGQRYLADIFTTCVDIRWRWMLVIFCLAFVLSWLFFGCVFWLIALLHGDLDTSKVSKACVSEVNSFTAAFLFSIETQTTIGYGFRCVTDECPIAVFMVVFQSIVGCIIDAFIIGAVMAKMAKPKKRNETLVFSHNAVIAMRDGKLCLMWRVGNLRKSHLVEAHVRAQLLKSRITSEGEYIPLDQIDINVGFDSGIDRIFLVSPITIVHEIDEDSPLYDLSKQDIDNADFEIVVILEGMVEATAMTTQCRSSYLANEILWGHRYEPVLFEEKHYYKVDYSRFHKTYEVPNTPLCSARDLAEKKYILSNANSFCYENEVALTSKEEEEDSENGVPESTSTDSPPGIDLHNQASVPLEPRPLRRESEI
Method: IRK1 cDNA (Kubo et al., 1993) was cloned into the pGEM-Hess plasmid (IRK1-pGEMHess construct, provided by J. Yang). RNA was synthesized using T7 polymerase (Promega Corp., Madison, Wis.) from Nhe1-linearized cDNAs. Oocytes harvested from Xenopus laevis (Xenopus One, Ann Arbor, Mich.) were incubated in a solution containing NaCl, 82.5 mM; KCI, 2.5 mM; MgCl2, 1.0 mM; HEPES (pH 7.6), 5.0 mM and collagenase, 2-4 mg/ml. The oocyte preparation was agitated at 80 rpm for 60-90 minutes. It was then rinsed thoroughly and stored in a solution containing NaCl, 96 mM; KCl, 2.5 mM; CaCl2, 1.8 mM; MgCl2, 1.0 mM; HEPES (pH 7.6), 5 mM and gentamicin, 50 μg/ml. Defolliculated oocytes were selected and injected with RNA at least 2 and 16 hours, respectively, after collagenase treatment. All oocytes were stored at 18° C.
(§1) IRK1 currents were recorded from inside-out membrane patches of Xenopus oocytes (injected with IRK1cRNA) with an Axopatch 200B amplifier (Axon Instruments, Inc., Foster City, Calif.), filtered at 5 kHz, and sampled at 25 kHz using an analog-to-digital converter (DigiData 1200, Axon Instruments) interfaced with a personal computer. pClamp6 software (Axon Instruments) was used to control the amplifier and acquire the data. During current recording, the voltage across the membrane patch was first hyperpolarized from the 0 mV holding potential to −100 mV, and then stepped to various test voltages, or stepped directly from the holding potential. […] Background leak current correction was carried out as previously described (Lu and MacKinnon, Nature 371:243-246 (1994); Guo and Lu, 2000a). To effectively perfuse the patch, the tip of the patch pipette (3 MΣ) was immersed in a stream of intracellular solution exiting one of ten glass capillaries (ID=0.2 mm) mounted in parallel.
All recording solutions contained 100 mM K^+ contributed by KCl, K2EDTA, K2HPO4, KH2PO4, and KOH. The phosphate-buffered intracellular solution contained 5 mM K2EDTA (unless specified otherwise), and 10 mM “K2HPO4+KH2PO4” in a ratio yielding the desired pH, and sufficient KCl to bring total K^+ concentration to 100 mM (Guo and Lu, 2000a). The HEPES-buffered intracellular solution, as used in FIG. 3, contained (100 mM K^+ (Cl^−+OH^−), 5 mM EDTA and 10 mM HEPES, pH 7.2 (adjusted with KOH). The HEPES-buffered extracellular solution contained 100 mM K^+ (Cl^−+OH^−), 0.3 mM CaCl2, 1.0 mM MgCl2, and 10 mM HEPES, pH 7.6 (adjusted with KOH). In the phosphate-buffered extracellular solution, HEPES was replaced by an equal concentration of “K2HPO4+KH2PO4” in a ratio yielding pH 7.6. The divalent cation-free extracellular solution contained 5 mM EDTA. All chemicals were purchased from Fluka Chemical Corp.
In all cases the intracellular solutions contained 100 mM K^+, 5 mM EDTA and 10 mM phosphate (pH 7.6) in addition to the tested chemicals, while the extracellular solution contained 100 mM K^+, 0.3 mM Ca^2+, 1 mM Mg^2+, 10 mM phosphate (pH 7.6). The currents were corrected for background current.

IRK1 channels [2] = target: T1, IRK1 channels; settings: 2000b, cited from earlier work
IRK1 channels [3] = target: T1, IRK1 channels; test: Relaxation/block of inward IRK1 currents by extracellular chemicals, inside-out patches; assay type: cell-based; settings: 10 mM HEPES, 3 μM HEP or 0.3 μM piperazine
Method: as §1
The phosphate-buffered intracellular solution contained 5 mM K2EDTA (unless specified otherwise), and 10 mM “K2HPO4+KH2PO4” in a ratio yielding the desired pH, and sufficient KCl to bring total K^+ concentration to 100 mM (Guo and Lu, 2000a). The HEPES-buffered intracellular solution, as used in FIG. 3, contained (100 mM K^+ (Cl^−+OH^−), 5 mM EDTA and 10 mM HEPES, pH 7.2 (adjusted with KOH). The HEPES-buffered extracellular solution contained 100 mM K^+ (Cl^−+OH^−), 0.3 mM CaCl2, 1.0 mM MgCl2, and 10 mM HEPES, pH 7.6 (adjusted with KOH). In the phosphate-buffered extracellular solution, HEPES was replaced by an equal concentration of “K2HPO4+KH2PO4” in a ratio yielding pH 7.6. The divalent cation-free extracellular solution contained 5 mM EDTA. All chemicals were purchased from Fluka Chemical Corp.
Since solutions in the quoted study were HEPES buffered, currents elicited with the voltage protocol used to produce the data in FIG. 12 were evaluated with no added divalent cations in the extracellular solution to determine whether the current relaxation was due to the use of extracellular HEPES.
The channel block associated with extracellular HEPES was examined to determine whether it could also be caused by residual contaminants. Intra- and extracellular solutions were buffered with 10 mM phosphate. […] The ratio of currents at the end and the beginning of voltage pulses (Iend/Ibgn) was plotted against membrane voltage.

Kir1.1 = Kir1.1 (Homo sapiens, UniProt P48048); settings: 100 μM; cited from earlier work
[4] = tested on: Kir2.1 (E224 and E299 replaced with neutral ones); settings: 100 μM; cited from earlier work
Shaker channel = Shaker channel (Drosophila melanogaster, UniProt P08510); settings: 100 μM; cited from earlier work
Kir2.1 = Kir2.1 (Homo sapiens, UniProt P63252); settings: 100 μM; cited from earlier work
[5] = Goodman & Gilman's; cited from earlier work
[6] = intracellular blocker, Kd at 0 mV, mean±sem, read-out: Kd (0 mV), fit of the Woodhull equation

Shaker channel, sequence (P08510 whole entry): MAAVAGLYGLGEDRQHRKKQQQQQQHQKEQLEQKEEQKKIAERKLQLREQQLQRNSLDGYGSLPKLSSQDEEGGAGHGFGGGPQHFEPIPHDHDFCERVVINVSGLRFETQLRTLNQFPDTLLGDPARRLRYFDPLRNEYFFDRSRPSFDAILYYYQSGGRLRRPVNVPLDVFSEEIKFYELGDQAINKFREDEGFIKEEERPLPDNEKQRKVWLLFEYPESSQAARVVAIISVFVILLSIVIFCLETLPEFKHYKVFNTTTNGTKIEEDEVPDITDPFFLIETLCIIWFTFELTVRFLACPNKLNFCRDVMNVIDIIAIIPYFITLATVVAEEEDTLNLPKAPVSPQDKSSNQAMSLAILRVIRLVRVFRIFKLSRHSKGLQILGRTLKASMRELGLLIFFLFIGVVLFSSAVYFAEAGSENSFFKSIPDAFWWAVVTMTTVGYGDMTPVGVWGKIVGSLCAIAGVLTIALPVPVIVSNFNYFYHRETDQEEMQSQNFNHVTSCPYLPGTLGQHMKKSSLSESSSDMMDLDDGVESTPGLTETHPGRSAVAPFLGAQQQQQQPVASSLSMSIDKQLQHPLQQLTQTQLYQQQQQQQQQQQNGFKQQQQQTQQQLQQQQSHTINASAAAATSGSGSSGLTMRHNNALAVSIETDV
Kir1.1, sequence (P48048 whole entry): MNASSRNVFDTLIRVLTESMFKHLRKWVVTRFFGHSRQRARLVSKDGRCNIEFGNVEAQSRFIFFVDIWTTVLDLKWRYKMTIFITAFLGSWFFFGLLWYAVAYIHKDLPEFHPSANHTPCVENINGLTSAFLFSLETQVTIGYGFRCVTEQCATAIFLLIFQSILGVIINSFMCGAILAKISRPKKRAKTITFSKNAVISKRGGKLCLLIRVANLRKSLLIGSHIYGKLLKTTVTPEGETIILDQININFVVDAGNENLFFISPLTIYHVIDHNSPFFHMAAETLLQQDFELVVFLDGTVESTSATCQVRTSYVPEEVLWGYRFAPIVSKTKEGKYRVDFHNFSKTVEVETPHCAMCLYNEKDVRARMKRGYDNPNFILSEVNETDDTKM
Kir2.1, sequence (P63252 whole entry): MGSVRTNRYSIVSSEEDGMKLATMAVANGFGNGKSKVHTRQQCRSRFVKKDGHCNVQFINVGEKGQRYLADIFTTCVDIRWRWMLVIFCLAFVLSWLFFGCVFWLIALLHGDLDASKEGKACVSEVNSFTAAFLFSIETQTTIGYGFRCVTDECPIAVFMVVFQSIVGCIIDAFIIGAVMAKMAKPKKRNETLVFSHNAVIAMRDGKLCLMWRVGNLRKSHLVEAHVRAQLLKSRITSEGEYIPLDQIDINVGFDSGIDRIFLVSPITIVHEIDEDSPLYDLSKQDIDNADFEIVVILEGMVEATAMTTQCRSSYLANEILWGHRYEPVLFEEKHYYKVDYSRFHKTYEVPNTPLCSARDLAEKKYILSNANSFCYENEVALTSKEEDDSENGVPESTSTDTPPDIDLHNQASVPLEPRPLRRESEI

inward rectification with intracellular metal ion chelator (IRK1 channels [1]): least rectification
SMILES: O=C(O)CN(CCN(CC(=O)O)CC(=O)O)CC(=O)O [EDTA, ethylene diamine tetraacetic acid]

potency of channel block relative to EDTA (IRK1 channels [1]; 0.1 μM ethylenediamine versus 30 mM EDTA, intracellular): > 10,000 fold
SMILES: NCCN [ethylenediamine]
Z (valence) (IRK1 channels [2]; Guo and Lu): 2
Kd (IRK1 channels [2]; Guo and Lu, read-out: Kd (0 mV)): 1400 µM

SMILES: NCCCNCCCCNCCCN [spermine]
effective valence of channel block (IRK1 channels [2]; Guo and Lu 2000a): ~5
Kd (IRK1 channels [2]; Guo and Lu 2000a, read-out: Kd (0 mV) for binding of fully protonated spermine): ~0.1 µM

Kd (IRK1 channels [1]; intracellular Mg2+, FIG. 7B, read-out: Kd (0 mV), fit of the Woodhull equation to the Mg2+-inhibition curve): 17 µM
Z (valence), fit of the Woodhull equation (IRK1 channels [1]; intracellular blocker): 1.1
SMILES: [Mg+2] [Mg^2+]

inward rectification with intracellular metal ion chelator (IRK1 channels [1]): more pronounced
SMILES: O=C(O)CN(CCOCCOCCN(CC(=O)O)CC(=O)O)CC(=O)O [EGTA, ethylene glycol bis(β-aminoethyl ether) N,N,N′,N′-tetraacetic acid]

SMILES: O=C(O)CN(CC(=O)O)C1CCCCC1N(CC(=O)O)CC(=O)O (stereo not drawn) [CDTA, cyclohexane 1,2-diaminetetraacetic acid]
inward rectification with intracellular metal ion chelator (IRK1 channels [1]): more pronounced

SMILES: OCCN1CCNCC1 [HEP, hydroxyethyl piperazine]
inward current relaxation / channel block by extracellular chemical (IRK1 channels [3]; 20 mM extracellular K+): blocked the channels
relative potency of channel block (qualitative) (IRK1 channels [1]; 10 mM HEPES, 3 μM HEP, 0.3 μM piperazine, intracellular): much more potent
Z (valence), fit of the Woodhull equation (IRK1 channels [1]; intracellular blocker): 1.09±0.03
Kd (IRK1 channels [1]; [6]): 2970 ± 160 µM

inward current relaxation / channel block by extracellular chemical (IRK1 channels [3]; 20 mM extracellular K+): prominent inward current relaxation
inward current relaxation / channel block by extracellular chemical (IRK1 channels [3]; 100 mM extracellular K+): little or no relaxation
Z (valence), fit of the Woodhull equation (IRK1 channels [1]; intracellular blocker): 1.02±0.02
SMILES: O=S(=O)(O)CCN1CCN(CCO)CC1 [HEPES, 4-(2 hydroxyethyl)-1-piperazineethanesulfonic acid]

inward current relaxation / channel block by extracellular chemical (IRK1 channels [3]; 20 mM extracellular K+): blocked the channels
Z (valence), fit of the Woodhull equation (IRK1 channels [1]; intracellular blocker): 1.08±0.02
Kd (IRK1 channels [1]; [6]): 270 ± 40 µM
SMILES: C1CNCCN1 [piperazine]
effect on Kir1.1 (Kir1.1): no effects
sensitivity of mutant Kir2.1 [4]: practically insensitive
effect on Shaker channel (Shaker channel): no effects
inhibition of Kir2.1 (Kir2.1): dramatically inhibits
adverse effects attending use [5]: Occasional gastrointestinal upset, transient neurological effects, and urticarial reaction
laboratory studies on patients receiving treatment for several days [5]: no abnormality
use during pregnancy [5]: without ill effect
